Laboratory results reported in ChEMBL document CHEMBL1201862, “PubChem BioAssay data set” (2004).
Calls of active or inactive are those of the source.

Legend:
[1] = target: T1, Neuropeptide Y receptor type 2 (Homo sapiens, UniProt P49146); assay: IC50 for human NPY-Y2 blockade – cell-based, counter-screen for NPY-Y1 antagonist project, dose response (AID 1278); type: functional
T1 sequence (P49146 whole entry): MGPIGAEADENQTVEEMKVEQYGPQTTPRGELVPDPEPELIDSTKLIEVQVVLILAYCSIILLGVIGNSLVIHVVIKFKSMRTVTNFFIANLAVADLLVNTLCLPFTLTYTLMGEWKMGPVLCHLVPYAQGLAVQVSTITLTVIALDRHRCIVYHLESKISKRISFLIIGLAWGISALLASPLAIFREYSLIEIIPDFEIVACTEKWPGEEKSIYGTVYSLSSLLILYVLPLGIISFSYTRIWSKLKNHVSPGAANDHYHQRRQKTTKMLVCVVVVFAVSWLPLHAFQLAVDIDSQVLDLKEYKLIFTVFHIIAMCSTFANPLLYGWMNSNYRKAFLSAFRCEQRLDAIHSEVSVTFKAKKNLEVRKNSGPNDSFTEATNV

[2] = target: T2, Neuropeptide Y receptor type 1 (Homo sapiens, UniProt P25929); assay: IC50 of human NPY-Y1 blockers – cell-based, dose response (AID 1277); type: functional
T2 sequence (P25929 whole entry): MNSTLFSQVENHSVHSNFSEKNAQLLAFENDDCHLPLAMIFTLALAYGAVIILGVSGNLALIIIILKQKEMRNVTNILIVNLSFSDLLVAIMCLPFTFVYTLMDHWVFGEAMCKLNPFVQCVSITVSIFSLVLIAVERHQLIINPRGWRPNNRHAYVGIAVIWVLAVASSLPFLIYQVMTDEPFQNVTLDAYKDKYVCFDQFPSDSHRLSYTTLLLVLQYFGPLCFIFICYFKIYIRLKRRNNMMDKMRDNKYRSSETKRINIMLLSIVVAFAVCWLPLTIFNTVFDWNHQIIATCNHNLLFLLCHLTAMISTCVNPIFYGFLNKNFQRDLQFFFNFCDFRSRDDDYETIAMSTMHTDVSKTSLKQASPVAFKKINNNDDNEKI

Estrogen receptor beta [3] = target: T3, Estrogen receptor beta (Homo sapiens, UniProt Q92731); assay: blockers of SRC-3 recruitment to ERβ – biochemical, ELISA, streptavidin-HRP readout, orthogonal assay, confirmation (AID 1060)
[4] = luciferase reporter signal suppression in cells – H4 neuroglioma cells, luminescence, dose response (AID 1990); type: functional, cell-based
[5] = Luminescence Cell-Based Dose Response HTS to Identify Inhibitors of 5'UTR Stem-Loop Driven Prion Protein mRNA Translation in H4 Neuroglioblastoma Cells. [Related pubchem assays: 1827 (Project Summary), 1813 (Primary HTS)]; type: functional
[6] = alpha-synuclein stem-loop luciferase translation blockers – H4 neuroglioma cells, luminescence, confirmation (AID 1988); type: functional, cell-based
[7] = target: Mitogen-activated protein kinase 10 (Homo sapiens, UniProt P53779); assay: Dose response biochemical screening assay for inhibitors of c-Jun N-Terminal Kinase 3 (JNK3). [Related pubchem assays: 746 ]
Ephrin type-A receptor 4 = Ephrin type-A receptor 4 (Mus musculus, UniProt Q03137); assay: EphA4 ligand-binding antagonists – biochemical, colorimetric, mouse EphA4, primary screen (AID 689); type: functional
INS1 = assay: INS-1E survival protection against cytokine death – cell-based, luminescence, retest, dose response (AID 449756); type: functional; conditions: Rattus norvegicus;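 further: cell death triggered by IL-1 beta plus TNF-alpha plus IFN-gamma mixture; protective hits raise ATP signal compared with cytokine alone wells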
[8] = target: T4, Replicative DNA helicase DnaB (Mycobacterium tuberculosis, UniProt P9WMR3); assay: DnaB intein splicing inhibitors, dose response, biochemical, cell-free fluorescence (AID 449749); type: functional
T4 sequence (P9WMR3 whole entry): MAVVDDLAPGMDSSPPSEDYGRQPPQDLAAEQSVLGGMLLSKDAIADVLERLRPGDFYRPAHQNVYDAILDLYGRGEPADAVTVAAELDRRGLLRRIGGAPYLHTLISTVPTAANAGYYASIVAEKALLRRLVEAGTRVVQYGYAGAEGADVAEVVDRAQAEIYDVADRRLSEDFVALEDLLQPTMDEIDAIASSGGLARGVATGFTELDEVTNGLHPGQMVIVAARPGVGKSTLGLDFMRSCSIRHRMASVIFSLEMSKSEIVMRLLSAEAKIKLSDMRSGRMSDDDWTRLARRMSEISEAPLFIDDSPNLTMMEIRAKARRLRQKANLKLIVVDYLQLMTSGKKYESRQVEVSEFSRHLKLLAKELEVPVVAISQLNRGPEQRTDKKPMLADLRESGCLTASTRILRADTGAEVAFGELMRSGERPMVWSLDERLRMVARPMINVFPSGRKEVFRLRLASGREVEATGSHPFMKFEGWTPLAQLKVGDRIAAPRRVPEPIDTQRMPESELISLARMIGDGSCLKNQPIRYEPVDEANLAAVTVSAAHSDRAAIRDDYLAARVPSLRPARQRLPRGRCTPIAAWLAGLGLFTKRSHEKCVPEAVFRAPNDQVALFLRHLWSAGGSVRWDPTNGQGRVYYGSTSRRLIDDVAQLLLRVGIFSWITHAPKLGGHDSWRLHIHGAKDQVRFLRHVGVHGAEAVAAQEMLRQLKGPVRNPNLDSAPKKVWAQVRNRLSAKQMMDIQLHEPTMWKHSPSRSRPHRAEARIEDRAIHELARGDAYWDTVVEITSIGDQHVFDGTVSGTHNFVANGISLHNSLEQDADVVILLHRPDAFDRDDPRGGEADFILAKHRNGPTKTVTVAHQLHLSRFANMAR

Protein RecA = target: T5, Protein RecA (Mycobacterium tuberculosis, UniProt P9WHJ3); assay: Fluorescence Cell-Free Homogeneous Dose Retest to Identify Inhibitors of RecA-Intein Splicing Activity. [Related pubchem assays (depositor defined):AID2097, AID2223, AID489010, AID492950]; type: functional
T5 sequence (P9WHJ3 whole entry): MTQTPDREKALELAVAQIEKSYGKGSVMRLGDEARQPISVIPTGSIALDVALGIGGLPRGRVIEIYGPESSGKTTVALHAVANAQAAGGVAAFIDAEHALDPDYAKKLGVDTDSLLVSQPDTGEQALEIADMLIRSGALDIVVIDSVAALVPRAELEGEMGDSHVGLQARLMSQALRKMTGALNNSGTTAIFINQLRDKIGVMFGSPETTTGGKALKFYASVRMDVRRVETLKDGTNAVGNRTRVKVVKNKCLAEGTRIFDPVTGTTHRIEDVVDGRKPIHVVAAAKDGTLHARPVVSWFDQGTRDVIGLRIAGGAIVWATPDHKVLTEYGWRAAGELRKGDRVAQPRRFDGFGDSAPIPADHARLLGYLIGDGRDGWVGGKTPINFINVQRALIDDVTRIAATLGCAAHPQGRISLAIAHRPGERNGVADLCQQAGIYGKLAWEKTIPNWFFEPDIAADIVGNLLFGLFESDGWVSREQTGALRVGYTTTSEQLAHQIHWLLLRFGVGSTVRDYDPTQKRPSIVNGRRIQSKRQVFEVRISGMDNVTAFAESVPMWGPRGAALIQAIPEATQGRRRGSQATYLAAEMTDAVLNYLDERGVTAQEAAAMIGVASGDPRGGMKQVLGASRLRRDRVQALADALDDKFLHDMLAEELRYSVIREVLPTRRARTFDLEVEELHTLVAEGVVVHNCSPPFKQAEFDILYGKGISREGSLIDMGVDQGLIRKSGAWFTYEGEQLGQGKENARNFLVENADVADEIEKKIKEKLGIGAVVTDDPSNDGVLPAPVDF

[9] = target: T6, Sentrin-specific protease 8 (Homo sapiens, UniProt Q96LD8); type: functional
T6 sequence (Q96LD8 whole entry): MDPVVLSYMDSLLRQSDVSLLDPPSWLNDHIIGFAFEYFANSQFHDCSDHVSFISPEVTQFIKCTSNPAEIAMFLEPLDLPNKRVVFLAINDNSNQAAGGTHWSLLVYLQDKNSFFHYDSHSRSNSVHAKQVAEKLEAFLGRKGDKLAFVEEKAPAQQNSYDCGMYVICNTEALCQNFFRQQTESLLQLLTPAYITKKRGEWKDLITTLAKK

[10] = target: T6, Sentrin-specific protease 8; type: functional; remark: listed apart in the source
[11] = target: T7, Aryl hydrocarbon receptor (Homo sapiens, UniProt P35869); assay: Luminescence-based cell-based high throughput dose response assay for activators of the Aryl Hydrocarbon Receptor (AHR). [Related pubchem assays: 2796 (Primary screen (AHR activators in singlicate)), 2845 (Confirmation screen (AHR activators in triplicate)), 434939 (Counterscreen (PXR activators in triplicate)), 2804 (Summary (AHR activators))]; type: ADME
T7 sequence (P35869 whole entry): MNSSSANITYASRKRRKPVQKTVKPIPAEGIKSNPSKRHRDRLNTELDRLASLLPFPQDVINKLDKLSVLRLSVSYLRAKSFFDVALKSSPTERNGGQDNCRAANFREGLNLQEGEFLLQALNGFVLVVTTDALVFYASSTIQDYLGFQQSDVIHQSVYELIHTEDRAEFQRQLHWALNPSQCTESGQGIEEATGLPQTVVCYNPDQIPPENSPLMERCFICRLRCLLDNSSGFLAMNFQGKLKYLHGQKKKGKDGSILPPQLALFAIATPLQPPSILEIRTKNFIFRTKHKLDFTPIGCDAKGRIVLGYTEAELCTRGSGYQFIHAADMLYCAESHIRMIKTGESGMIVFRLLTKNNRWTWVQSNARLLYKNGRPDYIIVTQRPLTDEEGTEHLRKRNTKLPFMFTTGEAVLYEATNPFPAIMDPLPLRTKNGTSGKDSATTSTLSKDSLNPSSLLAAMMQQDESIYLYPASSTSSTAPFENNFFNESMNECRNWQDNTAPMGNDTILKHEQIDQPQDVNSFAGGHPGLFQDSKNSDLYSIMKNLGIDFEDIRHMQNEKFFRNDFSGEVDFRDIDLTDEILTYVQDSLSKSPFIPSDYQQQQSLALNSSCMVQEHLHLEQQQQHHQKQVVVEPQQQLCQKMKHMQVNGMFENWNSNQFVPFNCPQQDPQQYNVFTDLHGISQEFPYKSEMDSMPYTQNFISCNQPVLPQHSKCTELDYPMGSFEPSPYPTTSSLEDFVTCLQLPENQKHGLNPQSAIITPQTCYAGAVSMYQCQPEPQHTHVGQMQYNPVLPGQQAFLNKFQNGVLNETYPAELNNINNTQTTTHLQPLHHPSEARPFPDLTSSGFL

Fatty acid synthase [12] = target: T8, Fatty acid synthase (Homo sapiens, UniProt P49327); assay: inhibition of human FAS-TE enzyme activity – biochemical, endpoint fluorescence intensity, uHTS hits, dose response (AID 624327); type: functional;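 further: fluorescence from hydrolysis of an O-methyl fluorescein acyl ester substrate by the enzyme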
Fatty acid synthase [13] = target: T8, Fatty acid synthase; assay: inhibition of human FAS-TE enzyme activity – biochemical, kinetic fluorescence intensity, dose response (AID 624326); type: functional;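 further: rate of fluorescence rise from hydrolysis of a fluorogenic O-methyl fluorescein ester substrate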
Estrogen receptor beta [14] = target: T3, Estrogen receptor beta
Vero = assay: Vero cell viability after compound exposure – synthesized analogs, set II, cytotoxicity control for West Nile virus antiviral project, SAR follow-up (AID 2402); type: functional; conditions: Chlorocebus sabaeus
[15] = target: T9, Heat shock factor protein 1 (Mus musculus, UniProt P38532); assay: decrease of HSF1-responsive luciferase luminescence – cell-based, NIH3T3, dose retest, confirmation (AID 2382); type: functional;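 further: NIH3T3 fibroblasts with HSF1-driven luciferase reporter stressed by proteasome inhibitor MG132; luminescence from HSF1-driven luciferase expression after 8 hours of MG132 stress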
T9 sequence (P38532 whole entry): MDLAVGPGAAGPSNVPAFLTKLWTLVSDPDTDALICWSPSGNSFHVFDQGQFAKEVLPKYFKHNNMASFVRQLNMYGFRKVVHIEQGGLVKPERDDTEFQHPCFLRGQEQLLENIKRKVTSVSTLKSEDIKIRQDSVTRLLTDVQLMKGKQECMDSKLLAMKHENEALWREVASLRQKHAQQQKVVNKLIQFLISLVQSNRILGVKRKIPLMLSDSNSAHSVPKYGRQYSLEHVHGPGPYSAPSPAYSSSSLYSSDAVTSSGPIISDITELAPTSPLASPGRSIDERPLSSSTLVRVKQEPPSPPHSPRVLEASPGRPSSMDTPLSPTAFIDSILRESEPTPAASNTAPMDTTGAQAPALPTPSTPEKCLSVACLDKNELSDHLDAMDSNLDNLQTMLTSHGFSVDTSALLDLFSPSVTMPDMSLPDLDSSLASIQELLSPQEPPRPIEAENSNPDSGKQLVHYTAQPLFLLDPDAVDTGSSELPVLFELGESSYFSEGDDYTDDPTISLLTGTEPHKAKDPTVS

T3 sequence (Q92731 whole entry): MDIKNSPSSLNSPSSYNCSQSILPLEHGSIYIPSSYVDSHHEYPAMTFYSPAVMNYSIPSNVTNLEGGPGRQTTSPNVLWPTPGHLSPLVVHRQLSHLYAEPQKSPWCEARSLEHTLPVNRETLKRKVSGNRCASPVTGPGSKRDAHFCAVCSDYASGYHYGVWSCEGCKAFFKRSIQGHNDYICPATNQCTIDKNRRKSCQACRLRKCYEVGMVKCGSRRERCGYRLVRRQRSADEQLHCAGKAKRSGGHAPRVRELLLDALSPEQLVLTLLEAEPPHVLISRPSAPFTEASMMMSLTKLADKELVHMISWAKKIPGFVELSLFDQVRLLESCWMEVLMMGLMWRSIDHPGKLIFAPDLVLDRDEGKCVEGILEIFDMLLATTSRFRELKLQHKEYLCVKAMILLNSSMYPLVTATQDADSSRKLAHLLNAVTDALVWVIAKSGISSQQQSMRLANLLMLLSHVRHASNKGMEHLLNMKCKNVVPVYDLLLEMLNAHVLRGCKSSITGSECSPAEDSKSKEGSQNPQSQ
T8 sequence (P49327 whole entry): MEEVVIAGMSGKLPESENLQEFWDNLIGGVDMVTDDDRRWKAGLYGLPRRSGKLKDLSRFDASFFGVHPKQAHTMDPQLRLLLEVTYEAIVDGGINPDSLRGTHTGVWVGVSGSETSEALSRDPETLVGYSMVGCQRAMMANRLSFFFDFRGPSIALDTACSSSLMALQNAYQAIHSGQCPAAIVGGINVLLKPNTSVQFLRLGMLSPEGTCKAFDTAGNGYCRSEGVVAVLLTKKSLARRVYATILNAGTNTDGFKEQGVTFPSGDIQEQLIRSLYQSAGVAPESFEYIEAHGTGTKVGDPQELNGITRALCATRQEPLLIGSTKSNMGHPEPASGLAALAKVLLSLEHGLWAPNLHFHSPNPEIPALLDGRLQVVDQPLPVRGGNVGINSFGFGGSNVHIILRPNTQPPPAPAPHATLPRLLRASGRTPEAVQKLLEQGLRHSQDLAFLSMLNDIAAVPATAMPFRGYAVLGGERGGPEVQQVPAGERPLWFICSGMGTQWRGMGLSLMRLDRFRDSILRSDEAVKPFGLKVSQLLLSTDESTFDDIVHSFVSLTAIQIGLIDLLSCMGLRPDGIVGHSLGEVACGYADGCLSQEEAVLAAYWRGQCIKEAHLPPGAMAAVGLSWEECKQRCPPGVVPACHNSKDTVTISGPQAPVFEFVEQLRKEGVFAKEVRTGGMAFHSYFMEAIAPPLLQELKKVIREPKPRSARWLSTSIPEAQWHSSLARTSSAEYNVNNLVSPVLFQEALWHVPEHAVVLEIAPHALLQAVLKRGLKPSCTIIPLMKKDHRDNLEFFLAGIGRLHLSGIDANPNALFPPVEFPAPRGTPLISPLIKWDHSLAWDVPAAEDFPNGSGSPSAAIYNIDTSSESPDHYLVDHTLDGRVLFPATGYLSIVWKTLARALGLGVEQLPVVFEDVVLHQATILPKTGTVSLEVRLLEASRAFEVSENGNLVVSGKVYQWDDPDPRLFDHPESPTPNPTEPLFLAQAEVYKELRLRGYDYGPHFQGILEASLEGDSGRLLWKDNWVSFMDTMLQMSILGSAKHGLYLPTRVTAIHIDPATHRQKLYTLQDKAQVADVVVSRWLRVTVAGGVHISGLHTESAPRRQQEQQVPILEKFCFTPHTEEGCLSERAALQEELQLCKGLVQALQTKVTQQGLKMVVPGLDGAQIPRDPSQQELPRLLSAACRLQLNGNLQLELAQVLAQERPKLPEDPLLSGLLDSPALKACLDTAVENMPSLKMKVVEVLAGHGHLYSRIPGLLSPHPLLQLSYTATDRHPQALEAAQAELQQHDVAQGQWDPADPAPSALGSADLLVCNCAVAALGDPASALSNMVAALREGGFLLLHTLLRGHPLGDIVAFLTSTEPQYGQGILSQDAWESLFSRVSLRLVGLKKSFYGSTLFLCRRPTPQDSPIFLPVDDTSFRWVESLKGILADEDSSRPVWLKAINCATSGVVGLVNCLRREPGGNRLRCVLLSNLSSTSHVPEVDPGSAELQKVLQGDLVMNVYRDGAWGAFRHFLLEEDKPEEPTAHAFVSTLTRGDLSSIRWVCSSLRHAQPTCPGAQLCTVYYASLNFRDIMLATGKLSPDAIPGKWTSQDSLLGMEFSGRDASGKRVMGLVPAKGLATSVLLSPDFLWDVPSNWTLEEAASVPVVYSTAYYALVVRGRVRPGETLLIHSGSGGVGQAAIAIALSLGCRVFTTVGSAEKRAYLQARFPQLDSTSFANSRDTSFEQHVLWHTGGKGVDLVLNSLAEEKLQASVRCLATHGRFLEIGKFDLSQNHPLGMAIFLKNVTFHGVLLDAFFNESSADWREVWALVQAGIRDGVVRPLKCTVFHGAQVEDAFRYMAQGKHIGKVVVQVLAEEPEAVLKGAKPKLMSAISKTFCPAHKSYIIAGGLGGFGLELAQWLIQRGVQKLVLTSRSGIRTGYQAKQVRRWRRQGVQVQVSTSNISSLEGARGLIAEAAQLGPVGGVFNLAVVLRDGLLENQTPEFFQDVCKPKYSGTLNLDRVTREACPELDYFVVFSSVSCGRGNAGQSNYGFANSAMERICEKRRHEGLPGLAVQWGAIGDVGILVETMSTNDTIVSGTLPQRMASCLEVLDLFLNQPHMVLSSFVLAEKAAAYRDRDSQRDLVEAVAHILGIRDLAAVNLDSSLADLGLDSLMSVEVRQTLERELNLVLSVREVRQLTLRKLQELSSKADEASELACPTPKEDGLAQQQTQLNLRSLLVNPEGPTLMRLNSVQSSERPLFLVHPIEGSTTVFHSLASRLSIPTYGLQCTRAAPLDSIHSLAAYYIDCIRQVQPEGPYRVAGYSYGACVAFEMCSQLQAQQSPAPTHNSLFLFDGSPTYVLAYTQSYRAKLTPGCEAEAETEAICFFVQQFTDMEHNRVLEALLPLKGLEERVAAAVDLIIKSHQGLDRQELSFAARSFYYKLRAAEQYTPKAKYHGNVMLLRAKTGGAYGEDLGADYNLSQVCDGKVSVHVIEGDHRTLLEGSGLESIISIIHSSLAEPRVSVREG
Chain of Ephrin type-A receptor 4 (Q03137 whole entry): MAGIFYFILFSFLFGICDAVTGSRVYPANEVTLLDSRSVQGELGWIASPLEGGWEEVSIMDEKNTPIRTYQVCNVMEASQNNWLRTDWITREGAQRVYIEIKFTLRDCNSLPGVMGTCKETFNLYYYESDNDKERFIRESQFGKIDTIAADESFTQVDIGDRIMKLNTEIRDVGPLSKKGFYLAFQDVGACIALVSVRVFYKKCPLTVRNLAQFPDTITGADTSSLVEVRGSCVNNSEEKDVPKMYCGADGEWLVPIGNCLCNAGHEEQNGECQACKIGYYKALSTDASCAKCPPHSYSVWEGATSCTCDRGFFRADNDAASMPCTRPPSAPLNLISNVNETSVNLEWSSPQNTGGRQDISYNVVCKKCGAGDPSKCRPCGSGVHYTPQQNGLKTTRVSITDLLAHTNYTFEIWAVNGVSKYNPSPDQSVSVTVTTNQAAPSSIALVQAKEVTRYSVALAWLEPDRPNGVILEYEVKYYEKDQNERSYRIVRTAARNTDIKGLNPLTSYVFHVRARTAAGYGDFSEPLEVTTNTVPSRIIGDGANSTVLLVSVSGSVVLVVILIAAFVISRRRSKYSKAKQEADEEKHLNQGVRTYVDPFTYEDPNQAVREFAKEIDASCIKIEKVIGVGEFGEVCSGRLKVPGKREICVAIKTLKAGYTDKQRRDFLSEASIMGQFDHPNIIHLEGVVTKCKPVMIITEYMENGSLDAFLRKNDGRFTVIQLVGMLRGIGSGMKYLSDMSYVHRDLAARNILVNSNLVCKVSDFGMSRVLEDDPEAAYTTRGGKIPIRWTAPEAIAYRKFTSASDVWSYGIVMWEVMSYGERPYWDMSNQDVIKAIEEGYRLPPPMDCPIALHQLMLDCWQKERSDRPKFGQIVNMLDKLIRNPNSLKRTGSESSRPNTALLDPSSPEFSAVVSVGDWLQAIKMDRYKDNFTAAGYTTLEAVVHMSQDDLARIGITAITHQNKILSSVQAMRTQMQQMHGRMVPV
Chain of Mitogen-activated protein kinase 10 (P53779 whole entry): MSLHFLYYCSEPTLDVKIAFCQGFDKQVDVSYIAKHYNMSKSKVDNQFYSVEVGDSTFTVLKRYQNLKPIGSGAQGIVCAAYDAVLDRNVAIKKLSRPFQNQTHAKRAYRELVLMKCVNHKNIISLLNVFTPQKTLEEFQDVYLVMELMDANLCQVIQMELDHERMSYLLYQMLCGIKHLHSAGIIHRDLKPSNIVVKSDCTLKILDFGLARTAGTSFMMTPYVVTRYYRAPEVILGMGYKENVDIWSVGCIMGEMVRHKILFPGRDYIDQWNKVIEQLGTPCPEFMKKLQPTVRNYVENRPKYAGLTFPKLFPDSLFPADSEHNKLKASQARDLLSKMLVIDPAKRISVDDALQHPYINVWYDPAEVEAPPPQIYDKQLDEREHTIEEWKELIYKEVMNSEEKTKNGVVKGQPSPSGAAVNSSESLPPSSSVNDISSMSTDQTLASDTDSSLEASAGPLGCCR

With `O=C(c1ccco1)c1cn(Cc2ccc(Cl)cc2)c2ccccc12` the IC50 [1] was 9.22 µM (active) and the IC50 [2] was 6.69 µM (active).
In the case of `Cn1nc(C(=O)Nc2sccc2C(N)=O)ccc1=O`, the IC50 (Estrogen receptor beta [3]) was > 50 µM (not active).
For `CC1=C(C(=O)OC2CCCCCCC2)C(c2ccc(O)cc2)NC(=O)N1` (stereo not given), the EC50 [4] was 21.1 µM (active), the EC50 [5] was > 120 µM (not active) and the EC50 [6] was 23.9 µM (active). For the same compound, the IC50 [7] was 41.9 µM (not active).
With `O=C1/C(=C\c2nc3ccccc3[nH]2)SC(=S)N1c1ccc(F)cc1` the IC50 (Ephrin type-A receptor 4) was > 100 µM (not active).
With `CC(=O)OC1COC(OC2C(O)C(C)OC(OC3C(OC4CCC5(C)C(CCC6(C)C5CC=C5C7CC(C)(C)CCC7(C(=O)O)CCC56C)C4(C)CO)OCC(O)C3O)C2O)C(O)C1OC(C)=O` (stereo not given) the IC50 [1] was > 35 µM (not active), the IC50 [2] was > 35 µM (not active) and the AC50 (INS1) was 5.67 µM (active).
In the case of `CC1=CC2(O)OCCN(CCO)C2=CC1=O` (stereo not given), the IC50 (Estrogen receptor beta [3]) was < 0.023 µM (not active), the AC50 [8] was 16.9 µM (active) and the EC50 (Protein RecA) was 10.2 µM (active). The IC50 [9] was > 100 µM (inactive) and the IC50 [10] was 22.3 µM (active).
In the case of `COC(=O)c1cc(C(=O)Nc2nnc(C3CC3)s2)cc([N+](=O)[O-])c1`, the EC50 [11] was 3.02 µM (active), the IC50 (Fatty acid synthase [12]) was 9.7 µM (active) and the IC50 (Fatty acid synthase [13]) was 13.8 µM (active).
For `Cc1cc(=O)[nH]c(SCC(=O)Nc2nc3c(s2)CCCC3)n1`, the IC50 (Estrogen receptor beta [14]) was > 50 µM (not active).
For `OC1c2c(F)cccc2N=C2CCCCN21` (stereo not given), the CC50 (Vero) was > 200 µM (active).
For `CCOc1ccc(NC(=O)c2cc3ccccc3cc2OC)cc1`, the EC50 [11] was 2.17 µM (active).
For `O=C(CCCn1c(=S)[nH]c2cc3c(cc2c1=O)OCO3)N1CCc2ccccc2C1`, the IC50 (Estrogen receptor beta [14]) was > 50 µM (not active).
With `COc1ccc(OC)c(NC(=O)CSc2nc3ccccc3cc2Cc2ccccc2)c1` the EC50 [15] was > 195 µM (not active) and the IC50 (Ephrin type-A receptor 4) was > 100 µM (not active).
